Laboratory results from publication PMC11198769, “Enhancement of transcription efficiency by TAR-Tat system increases the functional expression of human olfactory receptors” (PLOS ONE, 2024).
Read-outs that look alike come from different tables or passages of the source.

How the values were obtained:
Assay in all cases: hOR assay (GloSensor cAMP luciferase), dose-response
Type in all cases: cell-based
[1] = molecular target: T1, OR8B3 (Homo sapiens, UniProt Q8NGG8); details: OR8B3, with or without the TAR-Tat system
T1 construct: Lucy tag (N); FLAG (N); Rho tag (N); expressed in transfected cells; host or cells: Flp-In T-REx-293 cells stably expressing RTP1S, Gαolf and Ric8-b
T1 sequence (Q8NGG8 1-313): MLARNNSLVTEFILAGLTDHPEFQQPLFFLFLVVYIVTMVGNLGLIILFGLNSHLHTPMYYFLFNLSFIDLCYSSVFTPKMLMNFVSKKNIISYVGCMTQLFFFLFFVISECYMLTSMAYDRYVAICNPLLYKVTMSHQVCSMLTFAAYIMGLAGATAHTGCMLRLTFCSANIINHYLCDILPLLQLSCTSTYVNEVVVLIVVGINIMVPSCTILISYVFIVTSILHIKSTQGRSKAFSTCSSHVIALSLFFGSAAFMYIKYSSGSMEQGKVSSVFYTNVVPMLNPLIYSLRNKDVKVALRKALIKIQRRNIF

[2] = molecular target: T2, OR2W1 (Homo sapiens, UniProt Q9Y3N9); details: for EC50: read-out: EC50 of n-hexanal concentration-response relationship
T2 construct: Lucy tag (N); FLAG (N); Rho tag (N); expressed in transfected cells; host or cells: Flp-In T-REx-293 cells stably expressing RTP1S, Gαolf and Ric8-b
T2 sequence (Q9Y3N9 1-320): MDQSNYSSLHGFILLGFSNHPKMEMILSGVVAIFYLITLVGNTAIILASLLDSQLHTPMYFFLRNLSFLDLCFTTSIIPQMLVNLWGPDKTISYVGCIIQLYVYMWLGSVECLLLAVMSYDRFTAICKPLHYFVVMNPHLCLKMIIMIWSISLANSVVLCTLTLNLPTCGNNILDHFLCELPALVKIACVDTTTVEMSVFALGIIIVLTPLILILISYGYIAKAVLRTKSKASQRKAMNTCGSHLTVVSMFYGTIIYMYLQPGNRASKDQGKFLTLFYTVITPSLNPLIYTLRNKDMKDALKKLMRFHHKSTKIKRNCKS

[3] = molecular target: T3, OR2B3 (Homo sapiens, UniProt O76000); details: OR2B3, with or without the TAR-Tat system
T3 construct: Lucy tag (N); FLAG (N); Rho tag (N); expressed in transfected cells; host or cells: Flp-In T-REx-293 cells stably expressing RTP1S, Gαolf and Ric8-b
T3 sequence (O76000 1-313): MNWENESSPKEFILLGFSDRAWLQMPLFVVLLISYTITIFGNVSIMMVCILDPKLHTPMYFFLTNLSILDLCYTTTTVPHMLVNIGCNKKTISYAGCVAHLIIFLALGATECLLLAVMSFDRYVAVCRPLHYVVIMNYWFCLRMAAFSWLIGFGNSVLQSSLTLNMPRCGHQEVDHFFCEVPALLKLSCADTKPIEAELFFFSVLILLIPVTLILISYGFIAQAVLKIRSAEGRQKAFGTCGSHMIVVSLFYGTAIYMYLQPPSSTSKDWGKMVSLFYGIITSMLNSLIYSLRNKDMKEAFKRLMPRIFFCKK

[4] = molecular target: T4, OR10C1 (Homo sapiens, UniProt Q96KK4); details: OR10C1, with or without the TAR-Tat system
T4 construct: Lucy tag (N); expressed in transfected cells; host or cells: Flp-In T-REx-293 cells stably expressing RTP1S, Gαolf and Ric8-b
T4 sequence (Q96KK4 1-312): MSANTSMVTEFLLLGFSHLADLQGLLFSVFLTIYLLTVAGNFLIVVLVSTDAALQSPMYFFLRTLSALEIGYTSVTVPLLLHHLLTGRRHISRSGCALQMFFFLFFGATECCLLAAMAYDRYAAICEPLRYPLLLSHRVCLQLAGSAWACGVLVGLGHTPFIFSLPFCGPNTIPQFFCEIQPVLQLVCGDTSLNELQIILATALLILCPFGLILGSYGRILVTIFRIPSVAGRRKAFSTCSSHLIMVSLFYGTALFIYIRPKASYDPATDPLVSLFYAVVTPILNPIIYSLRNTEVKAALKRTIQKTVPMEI

[5] = molecular target: T5, OR2J3 (Homo sapiens, UniProt O76001); details: OR2J3, with and without the TAR-Tat system
T5 construct: Lucy tag (N); FLAG (N); Rho tag (N); expressed in transfected cells; host or cells: Flp-In T-REx-293 cells stably expressing RTP1S, Gαolf and Ric8-b
T5 sequence (O76001 1-311): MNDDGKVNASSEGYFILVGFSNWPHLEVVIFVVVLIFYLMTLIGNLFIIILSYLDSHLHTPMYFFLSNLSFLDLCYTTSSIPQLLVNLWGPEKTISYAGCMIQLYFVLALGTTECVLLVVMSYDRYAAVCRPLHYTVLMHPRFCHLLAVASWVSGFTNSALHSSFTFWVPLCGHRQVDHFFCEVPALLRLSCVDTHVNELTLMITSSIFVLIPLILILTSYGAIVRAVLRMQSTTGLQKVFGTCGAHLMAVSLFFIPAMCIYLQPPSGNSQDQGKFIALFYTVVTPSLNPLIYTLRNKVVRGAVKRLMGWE

concentration-dependent response to n-hexanal [1]: no concentration-dependent response | EC50 ([2]; OR2W1/pBApo (without TAR-Tat system)): 21 µM | EC50 ([2]; OR2W1/pHEK (with TAR-Tat system)): 60 µM | increase of maximum value of dose-response curve with the TAR-Tat system ([2]; OR2W1/pHEK versus OR2W1/pBApo): 2.0 fold | concentration-dependent response to n-hexanal [3]: no concentration-dependent response | concentration-dependent response to n-hexanal [4]: no concentration-dependent response
SMILES: CCCCCC=O [n-hexanal]
concentration-dependent response to n-hexanal ([2]; OR2W1, with and without the TAR-Tat system): Concentration-dependent responses were observed | concentration-dependent response to n-hexanal [5]: concentration-dependent responses only with the TAR-Tat system
